Experiments:
[1] = target: T1, 5-hydroxytryptamine receptor 2B (Homo sapiens, UniProt P41595); type: functional, cell-based
[2] = target: Gamma-aminobutyric acid receptor subunit alpha-1 (Rattus norvegicus, UniProt P62813)
[3] = target: T1, 5-hydroxytryptamine receptor 2B; type: functional, cell-based; remark: listed apart in the source
[4] = target: Cannabinoid receptor 1 (Homo sapiens, UniProt P21554); type: functional, cell-based
[5] = target: T2, Equilibrative nucleoside transporter 1 (Homo sapiens, UniProt Q99808)
T2 sequence (Q99808 whole entry): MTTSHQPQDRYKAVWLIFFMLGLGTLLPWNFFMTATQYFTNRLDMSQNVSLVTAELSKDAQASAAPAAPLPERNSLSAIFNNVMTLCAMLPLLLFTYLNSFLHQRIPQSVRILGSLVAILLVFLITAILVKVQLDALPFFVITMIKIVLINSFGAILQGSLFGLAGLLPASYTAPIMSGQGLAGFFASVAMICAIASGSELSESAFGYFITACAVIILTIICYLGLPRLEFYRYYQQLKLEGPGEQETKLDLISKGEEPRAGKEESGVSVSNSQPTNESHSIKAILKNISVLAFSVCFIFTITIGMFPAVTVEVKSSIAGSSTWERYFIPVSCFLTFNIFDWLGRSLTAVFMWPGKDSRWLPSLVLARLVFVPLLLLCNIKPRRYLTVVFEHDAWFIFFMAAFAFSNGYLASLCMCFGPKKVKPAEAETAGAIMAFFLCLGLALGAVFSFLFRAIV

[6] = target: Sodium-dependent dopamine transporter (Homo sapiens, UniProt Q01959)
Sequence of Sodium-dependent dopamine transporter (Q01959 whole entry): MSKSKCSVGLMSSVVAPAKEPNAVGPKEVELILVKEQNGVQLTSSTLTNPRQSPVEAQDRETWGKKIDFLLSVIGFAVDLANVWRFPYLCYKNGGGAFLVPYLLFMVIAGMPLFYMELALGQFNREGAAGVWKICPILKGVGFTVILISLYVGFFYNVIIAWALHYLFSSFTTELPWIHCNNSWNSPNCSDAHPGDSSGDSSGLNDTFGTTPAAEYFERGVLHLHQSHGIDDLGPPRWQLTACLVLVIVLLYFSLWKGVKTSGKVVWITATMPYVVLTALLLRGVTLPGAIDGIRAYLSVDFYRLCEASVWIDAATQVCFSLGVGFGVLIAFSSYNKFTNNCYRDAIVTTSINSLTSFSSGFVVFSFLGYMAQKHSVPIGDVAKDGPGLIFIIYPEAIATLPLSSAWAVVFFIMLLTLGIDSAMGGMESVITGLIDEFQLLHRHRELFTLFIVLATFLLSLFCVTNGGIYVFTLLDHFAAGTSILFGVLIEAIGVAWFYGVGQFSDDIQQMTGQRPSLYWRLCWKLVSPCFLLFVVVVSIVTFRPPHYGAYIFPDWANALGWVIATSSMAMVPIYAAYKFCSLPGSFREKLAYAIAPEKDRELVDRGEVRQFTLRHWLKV

[7] = target: T3, Alpha-2A adrenergic receptor (Homo sapiens, UniProt P08913); type: functional, cell-based
T3 sequence (P08913 whole entry): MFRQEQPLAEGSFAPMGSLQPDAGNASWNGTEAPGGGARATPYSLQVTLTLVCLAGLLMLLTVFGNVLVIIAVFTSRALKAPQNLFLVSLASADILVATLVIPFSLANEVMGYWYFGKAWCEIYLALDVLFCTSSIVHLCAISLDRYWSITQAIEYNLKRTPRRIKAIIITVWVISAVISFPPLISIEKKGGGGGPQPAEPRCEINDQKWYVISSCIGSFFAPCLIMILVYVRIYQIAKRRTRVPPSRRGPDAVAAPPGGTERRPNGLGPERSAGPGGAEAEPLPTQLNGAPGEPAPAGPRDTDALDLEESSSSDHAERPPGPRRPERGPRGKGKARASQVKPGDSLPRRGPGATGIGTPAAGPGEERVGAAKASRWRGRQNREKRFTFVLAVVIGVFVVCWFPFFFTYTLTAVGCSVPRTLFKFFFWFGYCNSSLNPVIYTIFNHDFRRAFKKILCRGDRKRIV

[8] = target: T4, Adenosine receptor A3 (Homo sapiens, UniProt P0DMS8)
T4 sequence (P0DMS8 whole entry): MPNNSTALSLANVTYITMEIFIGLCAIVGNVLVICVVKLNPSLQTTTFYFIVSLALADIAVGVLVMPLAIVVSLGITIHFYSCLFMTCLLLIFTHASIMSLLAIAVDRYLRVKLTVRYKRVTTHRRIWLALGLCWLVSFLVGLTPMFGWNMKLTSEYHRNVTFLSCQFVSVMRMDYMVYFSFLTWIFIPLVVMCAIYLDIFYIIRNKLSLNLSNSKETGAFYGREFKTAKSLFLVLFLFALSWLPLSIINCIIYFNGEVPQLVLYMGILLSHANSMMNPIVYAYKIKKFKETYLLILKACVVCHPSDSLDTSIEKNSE

[9] = target: T5, Alpha-2C adrenergic receptor (Homo sapiens, UniProt P18825); type: functional
T5 sequence (P18825 whole entry): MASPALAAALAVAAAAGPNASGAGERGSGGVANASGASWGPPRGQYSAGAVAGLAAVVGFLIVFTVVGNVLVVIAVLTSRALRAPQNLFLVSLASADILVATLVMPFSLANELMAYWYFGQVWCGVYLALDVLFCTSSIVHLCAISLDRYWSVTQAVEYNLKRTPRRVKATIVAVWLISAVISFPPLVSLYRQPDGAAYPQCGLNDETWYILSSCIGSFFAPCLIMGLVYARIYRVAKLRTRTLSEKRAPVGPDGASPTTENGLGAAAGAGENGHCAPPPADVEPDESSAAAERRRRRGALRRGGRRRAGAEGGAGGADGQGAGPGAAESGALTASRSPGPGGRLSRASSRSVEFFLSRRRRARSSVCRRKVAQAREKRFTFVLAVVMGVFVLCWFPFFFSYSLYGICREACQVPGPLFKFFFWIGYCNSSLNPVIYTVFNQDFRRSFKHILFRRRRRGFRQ

[10] = target: T6, Gastrin/cholecystokinin type B receptor (Homo sapiens, UniProt P32239)
T6 sequence (P32239 whole entry): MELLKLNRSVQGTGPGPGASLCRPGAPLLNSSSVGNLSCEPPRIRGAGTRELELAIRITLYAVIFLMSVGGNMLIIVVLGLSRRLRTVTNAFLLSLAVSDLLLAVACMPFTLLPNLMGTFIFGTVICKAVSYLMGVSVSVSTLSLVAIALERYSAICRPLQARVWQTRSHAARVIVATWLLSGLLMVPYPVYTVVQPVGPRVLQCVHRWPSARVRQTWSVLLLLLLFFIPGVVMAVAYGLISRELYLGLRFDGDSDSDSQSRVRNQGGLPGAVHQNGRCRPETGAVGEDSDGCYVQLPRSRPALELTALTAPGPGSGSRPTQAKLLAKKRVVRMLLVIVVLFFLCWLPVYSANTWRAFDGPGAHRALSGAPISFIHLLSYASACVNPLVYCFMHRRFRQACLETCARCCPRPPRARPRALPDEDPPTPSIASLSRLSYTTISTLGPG
Also: assay procedure not described here.

Sequence of Cannabinoid receptor 1 (P21554 whole entry): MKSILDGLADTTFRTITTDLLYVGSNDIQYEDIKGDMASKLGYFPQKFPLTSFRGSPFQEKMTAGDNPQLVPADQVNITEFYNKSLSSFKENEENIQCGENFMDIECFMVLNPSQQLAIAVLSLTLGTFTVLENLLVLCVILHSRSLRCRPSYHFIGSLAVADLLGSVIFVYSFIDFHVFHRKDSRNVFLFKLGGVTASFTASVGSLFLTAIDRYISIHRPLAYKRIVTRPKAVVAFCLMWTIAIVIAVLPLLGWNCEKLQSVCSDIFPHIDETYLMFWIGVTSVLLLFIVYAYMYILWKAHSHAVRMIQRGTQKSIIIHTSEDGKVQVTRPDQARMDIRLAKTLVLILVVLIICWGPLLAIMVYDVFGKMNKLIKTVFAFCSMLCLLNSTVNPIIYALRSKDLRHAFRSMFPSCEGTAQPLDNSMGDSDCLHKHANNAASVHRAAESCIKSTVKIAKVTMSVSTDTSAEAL
T1 sequence (P41595 whole entry): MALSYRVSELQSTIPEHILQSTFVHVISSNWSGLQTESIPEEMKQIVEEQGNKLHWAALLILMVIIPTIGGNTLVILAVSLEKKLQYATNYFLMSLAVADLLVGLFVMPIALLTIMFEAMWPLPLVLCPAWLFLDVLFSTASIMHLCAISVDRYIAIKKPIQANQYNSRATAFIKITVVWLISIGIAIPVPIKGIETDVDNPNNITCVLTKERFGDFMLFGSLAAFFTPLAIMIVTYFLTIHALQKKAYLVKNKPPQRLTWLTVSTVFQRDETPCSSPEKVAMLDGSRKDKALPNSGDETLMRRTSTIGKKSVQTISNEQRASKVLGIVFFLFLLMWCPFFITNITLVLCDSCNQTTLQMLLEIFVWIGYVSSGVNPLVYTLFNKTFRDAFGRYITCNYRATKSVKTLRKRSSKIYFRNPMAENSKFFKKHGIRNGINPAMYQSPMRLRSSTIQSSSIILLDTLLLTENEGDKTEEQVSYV
Sequence of Gamma-aminobutyric acid receptor subunit alpha-1 (P62813 whole entry): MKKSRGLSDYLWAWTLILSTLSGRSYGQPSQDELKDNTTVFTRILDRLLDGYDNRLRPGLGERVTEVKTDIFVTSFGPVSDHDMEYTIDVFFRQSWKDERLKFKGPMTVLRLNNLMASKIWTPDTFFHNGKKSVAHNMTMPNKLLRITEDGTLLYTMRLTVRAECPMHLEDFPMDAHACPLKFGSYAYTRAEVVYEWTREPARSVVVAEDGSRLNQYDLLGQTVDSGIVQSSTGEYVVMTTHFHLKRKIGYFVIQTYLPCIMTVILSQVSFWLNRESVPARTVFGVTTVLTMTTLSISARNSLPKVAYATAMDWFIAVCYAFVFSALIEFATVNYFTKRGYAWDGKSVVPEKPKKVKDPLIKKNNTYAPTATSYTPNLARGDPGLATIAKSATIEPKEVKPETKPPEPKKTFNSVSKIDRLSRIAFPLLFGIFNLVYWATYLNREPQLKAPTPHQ

SMILES	AC50 [1]	AC50 [2]	AC50 [3]	AC50 [4]	AC50 [5]	AC50 [6]	AC50 [7]	AC50 [8]	AC50 [9]	AC50 [10]
CC(C)C(=O)OCC(=O)[C@@]12O[C@H](C3CCCCC3)O[C@@H]1C[C@H]1[C@@H]3CCC4=CC(=O)C=C[C@]4(C)[C@H]3[C@@H](O)C[C@@]12C [CICLESONIDE]	> 10 µM	> 30 µM	> 10 µM	> 30 µM	> 10 µM	> 10 µM	> 10 µM	4.2 µM	> 10 µM	
CCCC(CCC)C(=O)O[C@H]1C[C@H]2CC[C@@H](C1)[N+]2(C)C [ANISOTROPINE]	> 30 µM		> 30 µM	> 30 µM		> 30 µM	> 30 µM	> 30 µM	> 30 µM	> 30 µM
CCNC(C)Cc1cccc(C(F)(F)F)c1 (stereo unspecified) [FENFLURAMINE]		> 10 µM		> 30 µM	> 30 µM			> 30 µM		> 30 µM
CCC1(C2=CCCCCC2)C(=O)NC(=O)NC1=O [HEPTABARBITAL]	> 10 µM	> 10 µM	> 10 µM	> 30 µM	> 10 µM	> 10 µM	> 10 µM	> 10 µM	> 10 µM	
Nc1nc2ccc(OC(F)(F)F)cc2s1 [RILUZOLE]	> 30 µM		> 30 µM	> 30 µM	> 30 µM	> 30 µM	> 30 µM	> 30 µM	> 30 µM	> 30 µM
O=C1CN=C(c2ccccc2)c2cc(Cl)ccc2N1CC(F)(F)F [HALAZEPAM]	> 30 µM		> 30 µM	> 30 µM	> 30 µM	> 30 µM	> 30 µM	26 µM	> 30 µM	> 30 µM
C#CCN(C)[C@H](C)Cc1ccccc1 [SELEGILINE]	> 10 µM	> 10 µM	> 10 µM	> 30 µM	> 10 µM	> 10 µM	> 10 µM	> 10 µM	2.9 µM	
COC(=O)[C@H]1[C@@H](OC(=O)c2ccccc2)C[C@@H]2CC[C@H]1N2C [COCAINE]	> 30 µM	> 30 µM	> 30 µM	> 30 µM	> 30 µM		> 30 µM	> 30 µM	> 30 µM	> 30 µM
CCCOc1ccc(C(=O)OCCN(CC)CC)cc1N [PROPARACAINE]	> 30 µM		> 30 µM	> 30 µM	> 30 µM	> 30 µM	> 30 µM	> 30 µM	> 30 µM	> 30 µM
CC(C)c1c(C(=O)Nc2ccccc2)c(-c2ccccc2)c(-c2ccc(F)cc2)n1CC[C@@H](O)C[C@@H](O)CC(=O)O [ATORVASTATIN]		> 10 µM		> 30 µM	> 30 µM		> 10 µM	> 30 µM	> 10 µM	> 30 µM
CCN1CCC[C@H]1CNC(=O)c1cc(S(N)(=O)=O)ccc1OC [LEVOSULPIRIDE]	> 10 µM	> 10 µM	> 10 µM	> 30 µM		> 30 µM	> 10 µM	> 30 µM		> 30 µM
COc1ccc(C(=O)N2CCN(c3ccc4c(c3)CCC(=O)N4)CC2)cc1OC [VESNARINONE]	> 30 µM	> 30 µM	> 30 µM	> 30 µM		> 30 µM	> 30 µM	> 30 µM	> 30 µM	> 30 µM
Cc1cccc(C)c1NC(=O)C1CCCCN1C (stereo unspecified) [MEPIVACAINE]	> 30 µM		> 30 µM	> 30 µM	> 30 µM	> 30 µM	> 30 µM	> 30 µM	> 30 µM	> 30 µM
Cc1c(Cl)cccc1Nc1ccccc1C(=O)O [TOLFENAMIC ACID]	> 30 µM	> 30 µM	> 30 µM	> 30 µM		> 30 µM	20 µM	12 µM	> 30 µM	> 10 µM
Cc1ccc(-c2nc3ccc(C)cn3c2CC(=O)N(C)C)cc1 [ZOLPIDEM]	> 30 µM		29 µM	> 30 µM	> 30 µM	> 30 µM	> 30 µM	> 30 µM	> 30 µM	> 30 µM
Nc1ncnc2c1ncn2[C@@H]1O[C@H](COP(=O)(O)O)[C@@H](O)[C@H]1O [ADENOSINE PHOSPHATE]	> 30 µM	> 30 µM	> 30 µM	> 30 µM		> 30 µM	> 30 µM	> 30 µM	> 30 µM	> 30 µM
CCCCCOC(=O)Nc1nc(=O)n([C@@H]2O[C@H](C)[C@@H](O)[C@H]2O)cc1F [CAPECITABINE]	> 30 µM		> 30 µM	> 30 µM	> 30 µM	> 30 µM	> 30 µM	> 30 µM	> 30 µM	> 30 µM
O=C(O)CCCc1ccccc1 [PHENYLBUTANOIC ACID]	> 30 µM	> 30 µM	> 30 µM		> 30 µM	3.2 µM	> 30 µM	> 10 µM	> 30 µM	> 10 µM
CCCCN1CCCCC1C(=O)Nc1c(C)cccc1C (stereo unspecified) [BUPIVACAINE]	> 30 µM	> 30 µM	> 30 µM	> 30 µM		> 30 µM	> 30 µM	> 30 µM	> 30 µM	> 30 µM
CN1C(=O)CC(c2ccccc2)C1=O (stereo unspecified) [PHENSUXIMIDE]	> 10 µM	> 10 µM	> 10 µM	> 30 µM	> 10 µM	> 10 µM	> 10 µM	> 10 µM	> 10 µM	
CCCCCCC(C)(C)c1cc(O)c2c(c1)OC(C)(C)C1CCC(=O)CC21 (stereo unspecified) [NABILONE]	> 30 µM	> 30 µM	> 30 µM		> 30 µM	16 µM	> 30 µM	9.1 µM	> 30 µM	> 30 µM
